Measurements: patent US8394641B2, “Method of hydrolyzing an enzymatic substrate” (Advanced Liquid Logic Inc., priority 2009, dated 2013)

What was measured:
α-galactosidase = biological target: T1, α-galactosidase (Homo sapiens, UniProt P06280); test: Fabry assay on bench, substrate hydrolysis with cyclodextrins, QC DBS extracts; assay type: biochemical; settings: for effect on hydrolysis of the 4-MU substrate in the Fabry assay: 10, 30, 100 mM tested, effect at 10 mM
T1 construct: DBS extracts were prepared from quality control (QC) dried blood spot samples; tissue CDC, Atlanta Ga; host or cells: dried blood spot extracts (pooled cord blood / leukoreduced red cells plus serum)
T1 sequence (P06280 32-429): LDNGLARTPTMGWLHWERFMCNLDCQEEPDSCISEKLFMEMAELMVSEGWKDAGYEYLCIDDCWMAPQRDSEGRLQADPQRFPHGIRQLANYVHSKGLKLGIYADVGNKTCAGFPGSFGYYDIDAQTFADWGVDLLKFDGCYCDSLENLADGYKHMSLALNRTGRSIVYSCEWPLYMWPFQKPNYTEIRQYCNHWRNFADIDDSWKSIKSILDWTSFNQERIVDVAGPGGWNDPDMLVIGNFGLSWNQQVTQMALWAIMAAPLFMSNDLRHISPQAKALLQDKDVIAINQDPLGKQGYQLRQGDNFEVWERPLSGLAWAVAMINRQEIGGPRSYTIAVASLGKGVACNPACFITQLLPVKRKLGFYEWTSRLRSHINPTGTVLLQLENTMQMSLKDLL
Method: (§1) To evaluate the efficacy of cyclodextrins in enhancing the hydrolysis of enzymatic substrates (4-MU substrates) used in NBS assays, DBS extracts were prepared from quality control (QC) dried blood spot samples (i.e., base pool (BP), low (L), medium (M) and high (H) activity samples). The QC samples were obtained from CDC, Atlanta Ga. The base pool (BP) QC sample was prepared from a pool of leukoreduced human red blood cells that was adjusted with serum to a hematocrit of 50%. The High (H) activity QC sample was prepared from pooled cord blood that was adjusted with serum to a hematocrit of 50%. The medium (M) activity QC sample was prepared by using 50% base pool (BP) and 50% high (H) activity sample. The low (L) activity QC sample was prepared by using 95% base pool (BP) and 5% high (H) activity sample. The BP sample is used as a control for hydrolysis non-specific to white blood cell lysosomal enzymes. The DBS extracts were analyzed using on-bench assay protocols for Fabry, Gaucher, Krabbe, and Pompe diseases. For each assay, on-chip reagent formulations were scaled up to bench volumes. Hydroxypropyl-β-cyclodextrin or methyl-β-cyclodextrin reagent stocks (300 mM) were prepared in appropriate assay buffers. For each reaction, 10 μL of the appropriate substrate was mixed with 10 μL of DBS extract. After an incubation period (20 hrs at 37° C.), 50 μL of stop buffer (0.2 M NaCO3, pH 10.1) was added to the reaction. Fluorescence was read at 360/460 nm at a gain of 75. For each assay, QC samples (BP, L, M and H) were analyzed in duplicate.
FIGS. 20A and 20B show bar graphs 2000 and 2050 of the effect of hydroxypropyl-β-cyclodextrin and methyl-β-cyclodextrin, respectively, on substrate hydrolysis in a Fabry assay. The 4-MU substrate in the Fabry assay was β-D-galactopyranoside. The concentrations of β-cyclodextrins in the reaction mixture (substrate+DBS extract) were 10 mM, 30 mM and 100 mM.
To further evaluate the efficacy of lower concentrations of cyclodextrins in enhancing the hydrolysis of 4-MU substrates, Fabry and Gaucher assays were repeated using cyclodextrins concentrations ranging from 1 mM to 25 mM. FIGS. 22A and 22B show bar graphs 2200 and 2250, respectively, of the effect of lower concentrations of hydroxypropyl-β-cyclodextrin and methyl-β-cyclodextrin, respectively, on substrate hydrolysis in a Fabry assay. The 4-MU substrate in the Fabry assay was β-D-galactopyranoside. The concentrations of β-cyclodextrins in the reaction mixture (substrate+DBS extract) were 1, 5, 10, 15, 20, and 25 mM. […] The preferred concentration of methyl-β-cyclodextrin is from about 1 mM to about 20 mM, or from about 5 mM to about 15 mM, or from about 7 mM to about 13 mM, or from about 9 mM to about 11 mM, or from about 9.5 mM to about 11.5 mM.

α-glucosidase = biological target: T2, α-glucosidase (Homo sapiens, UniProt P10253); test: Pompe assay on bench, substrate hydrolysis with cyclodextrins, QC DBS extracts; assay type: biochemical; settings: data not shown
T2 construct: DBS extracts were prepared from quality control (QC) dried blood spot samples; tissue CDC, Atlanta Ga; host or cells: dried blood spot extracts (pooled cord blood / leukoreduced red cells plus serum)
Method: as §1, with “For each reaction, 10 μL of the appropriate substrate was mixed with 10 μL of DBS extract. After an incubation period (20 hrs at 37° C.), 50 μL of stop buffer (0.2 M NaCO3, pH 10.1) was added to the reaction.” left out, “duplicate. […]” for “duplicate.”

Row | Substance | effect on substrate hydrolysis in a Fabry assay, lower concentrations (α-galactosidase; 1, 5, 10, 15, 20, 25 mM) | effect on hydrolysis of the 4-MU substrate in the Fabry assay (α-galactosidase; 20 hrs at 37° C.) | effect on substrate hydrolysis in a Pompe assay (α-glucosidase) | increase of the QC-H signal in the Fabry assay (α-galactosidase; 10 mM, 20 hrs at 37° C.) [%]
1 | hydroxypropyl-β-cyclodextrin | less effective | less effective | less effective | –
2 | methyl-β-cyclodextrin | – | increase the hydrolysis | less effective | 37
